For orientation: IC50 means the point on the concentration scale where inhibition reaches its midpoint.

The values below come from ChEMBL document CHEMBL3046459, “Structural insights for 3H-1, -2, -4 triazolinones as angiotensin II receptor antagonists using QSAR techniques” (Med Chem Res, 2010).

For one test, the target named is T1, Type-1 angiotensin II receptor (Oryctolagus cuniculus) (UniProt P34976).
T1 sequence (whole entry): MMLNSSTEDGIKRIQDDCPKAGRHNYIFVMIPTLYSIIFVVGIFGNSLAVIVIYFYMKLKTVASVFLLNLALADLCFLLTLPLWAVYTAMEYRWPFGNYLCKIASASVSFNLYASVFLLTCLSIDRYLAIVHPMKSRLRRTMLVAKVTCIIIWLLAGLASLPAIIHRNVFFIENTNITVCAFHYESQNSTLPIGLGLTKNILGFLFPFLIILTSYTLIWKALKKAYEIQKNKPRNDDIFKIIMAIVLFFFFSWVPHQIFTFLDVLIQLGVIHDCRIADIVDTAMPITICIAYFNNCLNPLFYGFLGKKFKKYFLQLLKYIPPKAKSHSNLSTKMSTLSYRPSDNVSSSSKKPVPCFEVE
Put plainly: (§1) Antagonist activity at angiotensin 2 type-1 receptor in Oryctolagus cuniculus (rabbit) aorta in presence of bovine serum albumin. Also on record: unit not given here.
Consider `CCCCc1nn(CC(C)C)c(=O)n1Cc1ccc(-c2ccccc2-c2nn[nH]n2)cc1`, for which the logIC50 turned out to be 0.505.

Consider `CCCCc1nn(CC(=O)OC)c(=O)n1Cc1ccc(-c2ccccc2-c2nn[nH]n2)cc1`, for which the logIC50 turned out to be 1.23.

With `CCCCc1nn(Cc2c(F)c(F)c(F)c(F)c2F)c(=O)n1Cc1ccc(-c2ccccc2-c2nn[nH]n2)cc1`, the logIC50 was 1.5.

Regarding `CCCCc1nn(-c2ccccc2N(C)C)c(=O)n1Cc1ccc(-c2ccccc2-c2nn[nH]n2)cc1`, the logIC50 came to 0.505.

Consider `CCCCc1nn(-c2ccc(C)cc2)c(=O)n1Cc1ccc(-c2ccccc2-c2nn[nH]n2)cc1`, for which the logIC50 stood at 1.2.

Take `CCCCc1nnc(O)n1Cc1ccc(-c2ccccc2-c2nn[nH]n2)cc1`: the logIC50 was found to be 1.78.

On to `CCCCc1nn(-c2ccc([N+](=O)[O-])cc2)c(=O)n1Cc1ccc(-c2ccccc2-c2nn[nH]n2)cc1`, for which the logIC50 amounted to 1.9.

Consider `CCCCc1nn(Cc2cccc(C)c2)c(=O)n1Cc1ccc(-c2ccccc2-c2nn[nH]n2)cc1`, for which the logIC50 came to 1.08.

For the compound `CCCCc1nn(-c2cccc(C)c2)c(=O)n1Cc1ccc(-c2ccccc2-c2nn[nH]n2)cc1`, the logIC50 is 1.25.

In the case of `CCCCc1nn(C(C)c2ccccc2)c(=O)n1Cc1ccc(-c2ccccc2-c2nn[nH]n2)cc1` (centres undefined), the logIC50 worked out at 0.69.

As to `CCCCc1nn(-c2ccccc2OC)c(=O)n1Cc1ccc(-c2ccccc2-c2nn[nH]n2)cc1`, the logIC50 was 0.82.

Take `CCCCc1nn(-c2ccc(F)cc2)c(=O)n1Cc1ccc(-c2ccccc2-c2nn[nH]n2)cc1`: the logIC50 stood at 1.32.

Turning to `CCCCc1nn(-c2ccc(OC)cc2[N+](=O)[O-])c(=O)n1Cc1ccc(-c2ccccc2-c2nn[nH]n2)cc1`, the logIC50 was -0.131.

`CCCCCc1nn(-c2ccccc2[N+](=O)[O-])c(=O)n1Cc1ccc(-c2ccccc2-c2nn[nH]n2)cc1`: the logIC50 was -0.0315.

`CCCCc1nn(-c2ccccn2)c(=O)n1Cc1ccc(-c2ccccc2-c2nn[nH]n2)cc1`: the logIC50 turned out to be 1.9.

As to `CCCCc1nn(-c2c(F)c(F)c(F)c(F)c2F)c(=O)n1Cc1ccc(-c2ccccc2-c2nn[nH]n2)cc1`, the logIC50 worked out at 1.23.

For the compound `CCCCc1nn(-c2ccccc2Cl)c(=O)n1Cc1ccc(-c2ccccc2-c2nn[nH]n2)cc1`, the logIC50 was determined as 0.38.

With `CCCCc1nn(-c2ccccc2F)c(=O)n1Cc1ccc(-c2ccccc2-c2nn[nH]n2)cc1`, the logIC50 was found to be 0.886.

Consider `CCCCc1nn(-c2ccccc2C(C)C)c(=O)n1Cc1ccc(-c2ccccc2-c2nn[nH]n2)cc1`, for which the logIC50 came out at 0.146.

In the case of `CCCCc1nn(-c2ccc(Cl)cc2)c(=O)n1Cc1ccc(-c2ccccc2-c2nn[nH]n2)cc1`, the logIC50 is 1.84.

With `CCCCc1nn(-c2ccc(OC)cc2)c(=O)n1Cc1ccc(-c2ccccc2-c2nn[nH]n2)cc1`, the logIC50 is 0.699.

With `CCCCc1nn(Cc2ccccc2)c(=O)n1Cc1ccc(-c2ccccc2-c2nn[nH]n2)cc1`, the logIC50 was found to be 0.663.

Consider `CCCCc1nn(-c2ccc(C(=O)OC)cc2)c(=O)n1Cc1ccc(-c2ccccc2-c2nn[nH]n2)cc1`, for which the logIC50 came to 1.52.

Take `CCCCc1nn(-c2cccc([N+](=O)[O-])c2)c(=O)n1Cc1ccc(-c2ccccc2-c2nn[nH]n2)cc1`: the logIC50 worked out at 1.63.

With `CCCCc1nn(-c2ccccc2N)c(=O)n1Cc1ccc(-c2ccccc2-c2nn[nH]n2)cc1`, the logIC50 was found to be 2.

For `CCCCc1nn(C(C(=O)O)c2ccccc2)c(=O)n1Cc1ccc(-c2ccccc2-c2nn[nH]n2)cc1` (centres undefined), the logIC50 stood at 1.83.

On to `CCCCc1nn(-c2c(Cl)cccc2Cl)c(=O)n1Cc1ccc(-c2ccccc2-c2nn[nH]n2)cc1`, for which the logIC50 turned out to be 0.763.

For the compound `CCCc1nn(-c2ccccc2Cl)c(=O)n1Cc1ccc(-c2ccccc2-c2nn[nH]n2)cc1`, the logIC50 stood at 1.15.

Turning to `CCCCc1nn(-c2ccccc2Br)c(=O)n1Cc1ccc(-c2ccccc2-c2nn[nH]n2)cc1`, the logIC50 amounted to 0.301.

As to `CCCCc1nn(CC2CCCCC2)c(=O)n1Cc1ccc(-c2ccccc2-c2nn[nH]n2)cc1`, the logIC50 was 0.462.

For `CCCCc1nn(-c2ccccc2Cc2ccccc2)c(=O)n1Cc1ccc(-c2ccccc2-c2nn[nH]n2)cc1`, the logIC50 came to 1.04.

Consider `CCCCCc1nn(-c2ccccc2Cl)c(=O)n1Cc1ccc(-c2ccccc2-c2nn[nH]n2)cc1`, for which the logIC50 came out at 0.756.

Turning to `CCCCc1nn(Cc2ccccc2C)c(=O)n1Cc1ccc(-c2ccccc2-c2nn[nH]n2)cc1`, the logIC50 is 1.04.

With `CCCCc1nn(-c2ccccc2C(=O)O)c(=O)n1Cc1ccc(-c2ccccc2-c2nn[nH]n2)cc1`, the logIC50 was 2.06.

In the case of `CCCCc1nn(-c2ccccc2-c2ccccc2)c(=O)n1Cc1ccc(-c2ccccc2-c2nn[nH]n2)cc1`, the logIC50 is 0.556.

Turning to `CCCCc1nn(-c2cccc(OC)c2)c(=O)n1Cc1ccc(-c2ccccc2-c2nn[nH]n2)cc1`, the logIC50 was 1.18.

For `CCCCc1nn(CCC)c(=O)n1Cc1ccc(-c2ccccc2-c2nn[nH]n2)cc1`, the logIC50 was found to be 0.914.

Regarding `CCCCc1nn(-c2cccc(Cl)c2)c(=O)n1Cc1ccc(-c2ccccc2-c2nn[nH]n2)cc1`, the logIC50 amounted to 2.08.

Take `CCCCc1nn(CC)c(=O)n1Cc1ccc(-c2ccccc2-c2nn[nH]n2)cc1`: the logIC50 was 1.

Regarding `CCCCc1nn(C(C)CC)c(=O)n1Cc1ccc(-c2ccccc2-c2nn[nH]n2)cc1` (centres undefined), the logIC50 was 0.255.

With `CCCCc1nn(Cc2ccccc2C(=O)OC)c(=O)n1Cc1ccc(-c2ccccc2-c2nn[nH]n2)cc1`, the logIC50 stood at 1.04.

With `CCCCc1nn(C)c(=O)n1Cc1ccc(-c2ccccc2-c2nn[nH]n2)cc1`, the logIC50 was 1.84.

Regarding `CCCCc1nn(Cc2cccc(C(=O)OC)c2)c(=O)n1Cc1ccc(-c2ccccc2-c2nn[nH]n2)cc1`, the logIC50 came out at 2.04.

As to `CCCCc1nn(C(C)C)c(=O)n1Cc1ccc(-c2ccccc2-c2nn[nH]n2)cc1`, the logIC50 came to 0.886.

With `CCCCc1nn(-c2ccccc2C)c(=O)n1Cc1ccc(-c2ccccc2-c2nn[nH]n2)cc1`, the logIC50 amounted to 0.613.

For `CCCCc1nn(Cc2ccc(C(=O)OC)cc2)c(=O)n1Cc1ccc(-c2ccccc2-c2nn[nH]n2)cc1`, the logIC50 was determined as 1.36.

Take `CCCCc1nn(-c2ccccc2C(F)(F)F)c(=O)n1Cc1ccc(-c2ccccc2-c2nn[nH]n2)cc1`: the logIC50 came to 0.0792.

Consider `CCCCc1nn(Cc2ccccc2C(=O)O)c(=O)n1Cc1ccc(-c2ccccc2-c2nn[nH]n2)cc1`, for which the logIC50 stood at 2.69.

As for `CCCCc1nn(CCCC)c(=O)n1Cc1ccc(-c2ccccc2-c2nn[nH]n2)cc1`, the logIC50 amounted to 0.462.

For `CCCc1nn(-c2ccccc2[N+](=O)[O-])c(=O)n1Cc1ccc(-c2ccccc2-c2nn[nH]n2)cc1`, the logIC50 was found to be 0.978.

Turning to `CCCCc1nn(-c2ccc(CC)cc2)c(=O)n1Cc1ccc(-c2ccccc2-c2nn[nH]n2)cc1`, the logIC50 worked out at 1.43.

As to `CCCCc1nn(C(C(=O)OC)c2ccccc2)c(=O)n1Cc1ccc(-c2ccccc2-c2nn[nH]n2)cc1` (centres undefined), the logIC50 amounted to 1.08.

Consider `CCCCc1nn(-c2ccccc2C(=O)OC)c(=O)n1Cc1ccc(-c2ccccc2-c2nn[nH]n2)cc1`, for which the logIC50 stood at 0.748.

The target of the next test is T2, Type-1 angiotensin II receptor (Oryctolagus cuniculus, UniProt P34976).
T2 sequence (P34976 whole entry): T1 sequence (whole entry)
The description is as §1.
For the compound `CCCCc1nn(Cc2c(F)c(F)c(F)c(F)c2F)c(=O)n1Cc1ccc(-c2ccccc2-c2nn[nH]n2)cc1`, the IC50 stood at 6 nM.
